The target in one test is T1, PI3K delta (Homo sapiens, UniProt O00329).
T1 construct: for the full-length p110-d subunit are generated and fused by overlapping PCR; p85(iSH2) fusion partner (see partner chain) (N); His tag (C); made in house; host or cells: baculovirus; Tn5 (Trichoplusia ni) or TiniPro insect cells
Briefly: PI3K delta kinase assay (Kinase-Glo luminescence). The format is biochemical. As for the experimental part:
(§1) In a more preferred assay, the kinase reaction is performed in a final volume of 10 μL per well of a low volume non binding CORNING, 384 well black plate (Cat. No. #3676). The final concentrations of ATP and phosphatidyl inositol (PI) in the assay are 1 μM and 10 μg/mL respectively. The reaction is started by the addition of ATP.
(§2) The components of the assay are added per well as follows:
(§3) […] in 90% DMSO per well, in columns 1-20, 8 concentrations (1/3 and 1/3.33 serial dilution step) in single. • Low control: […] of 90% DMSO in half the wells of columns 23-24 (0.45% in final). • High control: […] of reference compound (e.g. compound of Example 7 in WO 2006/122806) in the other half of columns 23-24 (2.5 μM in final). • Standard: […] of reference compound as just mentioned diluted as the test compounds in columns 21-22 • 20 mL ‘buffer’ are prepared per assay: • 200 μL of 1M TRIS HCl pH7.5 (10 mM in final) • 60 μL of 1M MgCl2 (3 mM in final) • 500 μL of 2M NaCl (50 mM in final) • 100 μL of 10% CHAPS (0.05% in final) • 200 μL of 100 mM DTT (1 mM in final) • 18.94 mL of nanopure water • 10 mL ‘PI’ are prepared per assay: • 200 μL of 1 mg/ml L-alpha-Phosphatidylinositol (Liver Bovine, Avanti Polar Lipids Cat. No. 840042C MW=909.12) prepared in 3% OctylGlucoside (10 μg/ml in final) • 9.8 mL of ‘buffer’ • 10 mL ‘ATP’ are prepared per assay: • 6.7 μL of 3 mM stock of ATP giving a final concentration of 1 μM per well • 10 mL of ‘buffer’ • 2.5 mL of each PI3K construct are prepared per assay in ‘PI’ with the following final concentration: • 10 nM PI3K alfa EMV B1075 • 25 nM beta EMV BV949 • 10 nM delta EMV BV1060 • 150 nM gamma EMV BV950 • 5 μL of ‘PI/PI3K’ are added per well. • 5 μl ‘ATP’ are added per well to start the reaction. • The plates are then incubated at room temperature for 60 minutes (alfa, beta, delta) or 120 minutes (gamma). • The reaction is terminated by the addition of 10 μL Kinase-Glo (Promega Cat. No. #6714). • The assay plates are read after 10 minutes in Synergy 2 reader (BioTek, Vermont USA) with an integration time of 100 milliseconds and sensitivity set to 191. • Output: The High control is around 60'000 counts and the Low control is 30'000 or lower • This luminescence assay gives a useful Z′ ratio between 0.4 and 0.7
PI3Kγ BV-1060 p85(iSH2)-Gly Linker-p110d(Full-Length)-C-Term his Tag
(§4) IC50 is determined by a four parameter curve fitting routine that comes along with “excel fit”. […] Alternatively, IC50 values are calculated using idbsXLfit model 204, which is a 4 parameter logistic model.
On the technique in general: Kinase-Glo reads ATP consumption through a luciferase reaction.

The target of the next test is T2, PI3K alpha (Homo sapiens, UniProt P42336).
T2 construct: p85(iSH2) fusion partner (see partner chain) (N); His tag (C); made in house; host or cells: baculovirus; Tn5 (Trichoplusia ni) or TiniPro insect cells
T2 sequence (P42336 with tags, fused parts or gaps limits assumed): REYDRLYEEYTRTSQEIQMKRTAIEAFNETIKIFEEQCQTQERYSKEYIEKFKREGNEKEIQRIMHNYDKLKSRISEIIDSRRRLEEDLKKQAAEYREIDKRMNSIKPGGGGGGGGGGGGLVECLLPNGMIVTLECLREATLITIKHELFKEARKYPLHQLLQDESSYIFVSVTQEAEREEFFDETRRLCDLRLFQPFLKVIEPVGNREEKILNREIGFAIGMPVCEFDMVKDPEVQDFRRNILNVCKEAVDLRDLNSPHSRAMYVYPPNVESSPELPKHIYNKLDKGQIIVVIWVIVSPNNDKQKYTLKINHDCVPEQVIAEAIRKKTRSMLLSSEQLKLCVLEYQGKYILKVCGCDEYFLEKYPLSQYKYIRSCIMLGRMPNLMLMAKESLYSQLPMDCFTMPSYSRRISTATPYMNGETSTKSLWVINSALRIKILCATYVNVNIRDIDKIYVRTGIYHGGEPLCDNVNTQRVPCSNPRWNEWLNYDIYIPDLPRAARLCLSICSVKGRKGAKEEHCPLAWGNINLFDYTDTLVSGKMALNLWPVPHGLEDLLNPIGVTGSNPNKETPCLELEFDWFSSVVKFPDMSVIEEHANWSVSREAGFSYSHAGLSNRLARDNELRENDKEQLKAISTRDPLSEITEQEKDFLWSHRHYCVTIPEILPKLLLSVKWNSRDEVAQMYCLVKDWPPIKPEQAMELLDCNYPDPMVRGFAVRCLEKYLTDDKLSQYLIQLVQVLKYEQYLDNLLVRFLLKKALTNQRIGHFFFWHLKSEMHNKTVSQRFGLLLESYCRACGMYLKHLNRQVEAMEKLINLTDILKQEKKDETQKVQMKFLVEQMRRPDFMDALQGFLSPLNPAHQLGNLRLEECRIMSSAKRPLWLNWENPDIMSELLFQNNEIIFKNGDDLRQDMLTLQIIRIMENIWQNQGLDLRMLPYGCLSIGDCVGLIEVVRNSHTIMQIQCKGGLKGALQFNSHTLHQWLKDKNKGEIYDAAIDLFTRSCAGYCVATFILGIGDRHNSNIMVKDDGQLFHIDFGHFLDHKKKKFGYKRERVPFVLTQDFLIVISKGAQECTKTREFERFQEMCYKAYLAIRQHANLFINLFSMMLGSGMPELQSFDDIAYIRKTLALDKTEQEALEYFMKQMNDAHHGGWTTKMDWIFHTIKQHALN
Briefly: PI3K alpha kinase assay (Kinase-Glo luminescence). Type of test: biochemical. As for the experimental part: as §1, §2, §3
Two different constructs, BV 1052 and BV 1075, are used to generate the PI3 Kinase a proteins for compound screening.
as §4

Another test has as its target T3, PI3K beta (Homo sapiens, UniProt P42338).
T3 construct: for the full-length p110-b subunit are generated and fused by overlapping PCR; p85(iSH2) fusion partner (see partner chain) (N); His tag (C); made in house; host or cells: baculovirus; Tn5 (Trichoplusia ni) or TiniPro insect cells
Kind of test: PI3K beta kinase assay (Kinase-Glo luminescence). Type of test: biochemical. On the procedure: as §1, §2, §3
PI3Kβ BV-949 p85(iSH2)-Gly Linker-p110b(Full-Length)-C-Term his Tag
as §4

The next test addresses T4, mTOR (Homo sapiens, UniProt P42345).
T4 construct: purchased Invitrogen Corporation (Carlsbad/CA, USA) PV4753
Briefly: Biochemical assay for m-TOR by TR-FRET. The note with it: 8 μM ATP, 400 nM GFP-4EBP1, 0.5 nM mTOR. As for the experimental part:
Biochemical Assay for m-TOR by TR-FRET.
Assay components are purchased from Invitrogen Corporation (Carlsbad/CA, USA): GFP-4EBP1 (Cat. No. PV4759), Tb3+-α-p4EBP1 [pThr46] Antibody (Cat. No. PV4757), proprietary TR-FRET dilution buffer (Cat. No. PV3574), mTOR protein (Cat. No. PV4753).
Then 5 μL of ATP (8 μM final concentration) and GFP-4EBP1 (400 nM final concentration) with 5 μL mTOR proteins (0.5 nM final concentration) are incubated at rt. The standard reaction buffer for the TR-FRET mTOR assay contained 50 mM HEPES pH 7.5, 10 mM MnCl2, 50 mM NaCl, 1 mM EGTA, 1 mM DTT. Reactions were stopped with 10 μL of a mixture of EDTA containing the Tb3+-α-p4EBP1-[pT46] detection Ab (0.5 nM) in TR-FRET dilution buffer (proprietary to IVG). Plates are read 15 mins later in a Synergy2 reader using an integration time of 0.2 seconds and a delay of 0.1 seconds. […] A standard compound is used as a reference compound and included in all assay plates in the form of 16 dilution points in duplicate.

The test system of test [1] is S6 Ribosomal Protein phosphorylation Ser235/236 in TSC1 null mouse embryo fibroblast (MEF) cells. Kind of test: Reverse protein array assay, S6 Ribosomal Protein phosphorylation Ser235/236 in TSC1 null MEF cells. Type of test: cell-based. The following applies: 1 h, pS6 ribosomal protein Ser235/236, 60 minutes incubation, read-out: p-S6 IC50. As for the experimental part: (§5) The TSC1−/− cells were trypsinized and counted with a CASY TT cell counter (Schirfe System GmbH, Reutlingen Germany). […] The plates were incubated at 37° C. and 5% CO2 under humidified condition for at least 20 h. Working solutions were prepared freshly as serial 8 step dilutions (vol/vol) in DMSO on the day of the experiment. […] The final DMSO concentration was kept constant at 0.02%. cell culture medium containing 0.02% DMSO was used as vehicle treatment control. Post incubation, the cells were treated with the serial compound dilution. 50 μl of the compound medium mixture was added to the wells containing cells and 150 μl DMEM medium and incubated for 60 minutes (37° C., 5% CO2). After 60 minutes of incubation, the medium mixture was quickly removed by aspiration. […] 50 μl of the described lysis buffer mix was added to each well, followed by 10 minutes of incubation on ice.
The spotting of the chips follows the previous described method.

For test [2], the system named is PKB Ser473 phosphorylation in Rat1-myr-HA-p110 alpha cells. Briefly: Reverse protein array assay, PKB Ser473 phosphorylation in Rat1-myr-p110 alpha cells. The format is cell-based. The note with it: 0.5 h, pAkt Ser473, 30 minutes compound incubation, read-out: p-PKB IC50. As for the experimental part:
as §5, with “Rat1-myr-HA-p110 alpha, beta and delta” for “TSC1−/−”, “(Schärfe” for “(Schirfe”, “Compound of formula I working” for “Working”, “0.2%.” for “0.02%.”, “0.2%” for “0.02%”, “30” for “60”
(§6) The samples were spotted onto ZeptoMARKt PWG protein microarray chips (Zeptosens, Witterswil, Switzerland) with the piezoelectric microdispense-based, non-contact Nano-Plotter 2.1 (GeSiM, Grosserkmannsdorf, Germany). Each sample was spotted at 4 different sample concentrations (d1=100%, d2=75%, d3=50%, d4=25%) by diluting the cell lysate with the corresponding volume of lysis buffer mix. After spotting the ZeptoMARK® protein microarrays, the chips are incubated for 1 hour at 37° C. […] After 20 minutes of blocking the chips are extensively rinsed with deionized water (Milli-Q quality, 18MΩ×cm) and dried in a nitrogen air flow.
(§7) After incubation, the arrays were washed twice with 200 μl CAB1 buffer. […] The fluorescence signal was assessed with exposure times of 1, 3, 5 and 10 seconds, depending on the intensity of the signal. The resulting four images taken per array are stored as 16-bit TIF files.
(§8) The fluorescence images for each array were analyzed with the ZeptoVIEW Pro 2.0 software (Zeptosens, Witterswil, Switzerland) and the relative fluorescence intensity for each signal was calculated.

In test [3] the test system is PKB Ser473 phosphorylation in Rat1-myr-HA-p110 delta cells. Briefly: Reverse protein array assay, PKB Ser473 phosphorylation in Rat1-myr-p110 delta cells. Type of test: cell-based. The note with it: read-out: p-PKB IC50. On the procedure:
as §5, with “Rat1-myr-HA-p110 alpha, beta and delta” for “TSC1−/−”, “(Schärfe” for “(Schirfe”, “Compound of formula I working” for “Working”, “0.2%.” for “0.02%.”, “0.2%” for “0.02%”, “30” for “60”
as §6, §7, §8

The test system of test [4] is PKB Ser473 phosphorylation in Rat1-myr-HA-p110 beta cells. Briefly: Reverse protein array assay, PKB Ser473 phosphorylation in Rat1-myr-p110 beta cells. The format is cell-based. The following applies: 0.5 h, pAkt Ser473, 30 minutes incubation, read-out: p-PKB IC50. On the procedure:
as §5, with “Rat1-myr-HA-p110 alpha, beta and delta” for “TSC1−/−”, “(Schärfe” for “(Schirfe”, “Compound of formula I working” for “Working”, “0.2%.” for “0.02%.”, “0.2%” for “0.02%”, “30” for “60”
as §6, §7, §8

T4 sequence (P42345 1360-2549 limits assumed): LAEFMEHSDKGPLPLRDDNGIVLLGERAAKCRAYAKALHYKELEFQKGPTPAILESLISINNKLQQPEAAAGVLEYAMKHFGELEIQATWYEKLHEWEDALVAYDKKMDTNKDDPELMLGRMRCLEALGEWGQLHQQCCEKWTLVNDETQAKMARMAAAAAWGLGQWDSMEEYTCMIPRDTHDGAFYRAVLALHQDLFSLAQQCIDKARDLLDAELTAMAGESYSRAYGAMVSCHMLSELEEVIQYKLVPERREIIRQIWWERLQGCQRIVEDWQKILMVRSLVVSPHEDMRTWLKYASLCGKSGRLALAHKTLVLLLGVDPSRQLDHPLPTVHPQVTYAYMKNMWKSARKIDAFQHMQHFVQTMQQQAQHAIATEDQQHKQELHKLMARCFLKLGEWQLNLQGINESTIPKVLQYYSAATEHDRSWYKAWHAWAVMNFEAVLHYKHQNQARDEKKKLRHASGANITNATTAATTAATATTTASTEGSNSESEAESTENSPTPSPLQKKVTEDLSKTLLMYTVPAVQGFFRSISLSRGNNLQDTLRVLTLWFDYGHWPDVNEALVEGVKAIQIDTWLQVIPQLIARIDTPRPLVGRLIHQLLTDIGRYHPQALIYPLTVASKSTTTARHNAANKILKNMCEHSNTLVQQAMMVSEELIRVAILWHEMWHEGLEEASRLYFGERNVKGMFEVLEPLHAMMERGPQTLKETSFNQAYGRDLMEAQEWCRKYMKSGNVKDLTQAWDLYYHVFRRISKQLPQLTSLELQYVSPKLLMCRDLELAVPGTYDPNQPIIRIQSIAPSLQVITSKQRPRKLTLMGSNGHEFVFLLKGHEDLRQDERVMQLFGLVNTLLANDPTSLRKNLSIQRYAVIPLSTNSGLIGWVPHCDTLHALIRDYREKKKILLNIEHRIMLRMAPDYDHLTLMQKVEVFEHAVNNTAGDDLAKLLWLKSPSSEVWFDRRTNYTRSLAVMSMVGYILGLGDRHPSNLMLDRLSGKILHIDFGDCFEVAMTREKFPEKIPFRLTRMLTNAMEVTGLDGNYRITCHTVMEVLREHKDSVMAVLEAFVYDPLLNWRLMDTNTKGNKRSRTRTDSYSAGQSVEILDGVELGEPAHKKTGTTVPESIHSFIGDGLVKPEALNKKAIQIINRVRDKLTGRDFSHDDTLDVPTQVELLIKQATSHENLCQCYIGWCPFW
T3 sequence (P42338 with tags, fused parts or gaps limits assumed): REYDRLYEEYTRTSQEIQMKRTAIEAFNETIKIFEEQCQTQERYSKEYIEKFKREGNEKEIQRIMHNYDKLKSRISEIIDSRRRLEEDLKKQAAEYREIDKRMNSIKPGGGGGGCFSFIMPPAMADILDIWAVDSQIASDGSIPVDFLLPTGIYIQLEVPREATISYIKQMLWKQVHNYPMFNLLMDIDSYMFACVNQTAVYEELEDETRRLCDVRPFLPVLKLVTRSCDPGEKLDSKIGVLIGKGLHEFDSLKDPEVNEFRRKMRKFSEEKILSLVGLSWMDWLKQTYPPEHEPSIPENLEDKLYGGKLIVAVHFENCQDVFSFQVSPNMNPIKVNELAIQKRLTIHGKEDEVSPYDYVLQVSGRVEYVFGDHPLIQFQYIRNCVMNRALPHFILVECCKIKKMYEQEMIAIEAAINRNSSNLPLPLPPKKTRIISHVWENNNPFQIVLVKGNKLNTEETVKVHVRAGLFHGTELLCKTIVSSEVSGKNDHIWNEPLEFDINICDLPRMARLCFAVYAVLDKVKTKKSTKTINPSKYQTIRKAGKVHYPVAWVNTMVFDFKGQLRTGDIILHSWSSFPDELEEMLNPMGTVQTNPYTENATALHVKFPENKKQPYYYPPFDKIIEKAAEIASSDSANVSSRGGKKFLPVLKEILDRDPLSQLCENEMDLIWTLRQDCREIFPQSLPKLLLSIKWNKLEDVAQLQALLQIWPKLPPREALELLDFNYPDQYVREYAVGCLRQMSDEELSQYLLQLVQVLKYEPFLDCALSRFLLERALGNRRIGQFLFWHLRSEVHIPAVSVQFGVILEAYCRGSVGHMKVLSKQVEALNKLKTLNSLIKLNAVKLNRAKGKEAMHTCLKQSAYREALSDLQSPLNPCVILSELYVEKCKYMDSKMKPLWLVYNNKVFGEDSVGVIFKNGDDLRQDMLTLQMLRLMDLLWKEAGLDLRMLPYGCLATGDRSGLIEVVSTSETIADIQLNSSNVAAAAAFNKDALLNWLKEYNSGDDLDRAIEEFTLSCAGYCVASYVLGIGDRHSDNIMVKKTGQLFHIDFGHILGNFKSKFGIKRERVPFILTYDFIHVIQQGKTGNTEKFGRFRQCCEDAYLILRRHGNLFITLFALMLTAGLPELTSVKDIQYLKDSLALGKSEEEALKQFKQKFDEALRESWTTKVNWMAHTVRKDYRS
T1 sequence (O00329 with tags, fused parts or gaps limits assumed): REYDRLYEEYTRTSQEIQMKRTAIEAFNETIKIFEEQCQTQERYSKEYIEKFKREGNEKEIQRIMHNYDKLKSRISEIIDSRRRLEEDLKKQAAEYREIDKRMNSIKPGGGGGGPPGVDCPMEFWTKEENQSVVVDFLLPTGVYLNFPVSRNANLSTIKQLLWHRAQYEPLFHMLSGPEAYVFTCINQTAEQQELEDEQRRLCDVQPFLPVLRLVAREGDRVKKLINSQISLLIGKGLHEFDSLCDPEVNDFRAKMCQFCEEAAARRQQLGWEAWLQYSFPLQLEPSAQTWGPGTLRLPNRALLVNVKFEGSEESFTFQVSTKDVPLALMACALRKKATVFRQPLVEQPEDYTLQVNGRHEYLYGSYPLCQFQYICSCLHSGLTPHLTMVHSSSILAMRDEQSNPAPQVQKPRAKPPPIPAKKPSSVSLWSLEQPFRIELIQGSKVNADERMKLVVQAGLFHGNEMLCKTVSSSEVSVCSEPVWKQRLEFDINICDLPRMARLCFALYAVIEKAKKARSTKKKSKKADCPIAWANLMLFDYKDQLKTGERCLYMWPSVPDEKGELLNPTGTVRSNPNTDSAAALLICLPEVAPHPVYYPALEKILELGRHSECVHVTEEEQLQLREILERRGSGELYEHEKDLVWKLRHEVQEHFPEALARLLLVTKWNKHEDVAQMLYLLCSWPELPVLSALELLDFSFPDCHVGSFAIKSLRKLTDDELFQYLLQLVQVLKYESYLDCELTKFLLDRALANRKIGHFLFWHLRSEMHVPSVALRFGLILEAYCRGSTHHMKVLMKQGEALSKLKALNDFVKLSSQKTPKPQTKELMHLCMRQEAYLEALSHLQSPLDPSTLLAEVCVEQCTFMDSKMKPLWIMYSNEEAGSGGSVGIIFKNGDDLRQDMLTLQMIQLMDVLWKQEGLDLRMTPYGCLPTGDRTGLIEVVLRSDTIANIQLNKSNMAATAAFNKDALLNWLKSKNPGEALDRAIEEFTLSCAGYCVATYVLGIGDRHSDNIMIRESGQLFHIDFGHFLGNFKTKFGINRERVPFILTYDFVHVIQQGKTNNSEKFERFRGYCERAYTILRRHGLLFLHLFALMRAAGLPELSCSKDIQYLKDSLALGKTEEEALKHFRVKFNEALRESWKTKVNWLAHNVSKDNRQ

As usually defined, the IC50 is the concentration that gives 50% inhibition. On to `CCn1cc(-n2c(=O)n(C)c3cnc4ccc(-c5cnc(CO)c(NC)c5)cc4c32)c(C)n1` [Example 158.5, 1-(1-Ethyl-3-methyl-1H-pyrazol-4-yl)-8-(6-hydroxymethyl-5-methylamino-pyridin-3-yl)-3-methyl-1,3-dihydro-imidazo[4,5-c]quinolin-2-one], for which the IC50 on PI3K delta came to 7 nM; at PI3K alpha, 14 nM; at PI3K beta, 21 nM; on mTOR, 3 nM.
For `COc1nc2cc(-c3ccc4ncc5c(c4c3)n(-c3cn(C)nc3C)c(=O)n5C)cnc2n1C` [Example 71, 1-(1,3-Dimethyl-1H-pyrazol-4-yl)-8-(2-methoxy-3-methyl-3H-imidazo[4,5-b]pyridin-6-yl)-3-methyl-1,3-dihydro-imidazo[4,5-c]quinolin-2-one], the IC50 in test [1] was found to be 13 nM; in test [2], 37 nM; at PI3K delta, 262 nM; in test [3], 377 nM; on mTOR, 564 nM; in test [4] it was 110 nM.
On to `CCn1c(=O)n(C)c2ncc(-c3ccc4ncc5c(c4c3)n(-c3cn(C)nc3C)c(=O)n5C)cc21` [Example 68, 1-(1,3-Dimethyl-1H-pyrazol-4-yl)-8-(1-ethyl-3-methyl-2-oxo-2,3-dihydro-1H-imidazo[4,5-b]pyridin-6-yl)-3-methyl-1,3-dihydro-imidazo[4,5-c]quinolin-2-one], for which the IC50 came out at 29 nM at PI3K delta; 21 nM on PI3K alpha; 61 nM on PI3K beta; 71 nM in test [3]; 462 nM on mTOR; 92 nM in test [4].
In the case of `Cc1ccc(-c2ccc3ncc4c(c3c2)n(-c2cc(C)nn2C)c(=O)n4C)cn1` [Example 7.1, 1-(2,5-Dimethyl-2H-pyrazol-3-yl)-3-methyl-8-(6-methyl-pyridin-3-yl)-1,3-dihydro-imidazo[4,5-c]quinolin-2-one], the IC50 on PI3K delta amounted to 68 nM; at PI3K alpha, 46 nM; on PI3K beta, 404 nM; on mTOR, 105 nM.
The corresponding values for `CCn1cc(-n2c(=O)n(C)c3cnc4ccc(-c5cnc(NC)c(COC)c5)cc4c32)c(C)n1` [Example 248.2, 1-(1-Ethyl-3-methyl-1H-pyrazol-4-yl)-8-(5-methoxymethyl-6-methylamino-pyridin-3-yl)-3-methyl-1,3-dihydro-imidazo[4,5-c]quinolin-2-one] are 3 nM, 8 nM, 22 nM and 15 nM.
As to `CNc1ncc(-c2ccc3ncc4c(c3c2)n(-c2c(C)nn(C)c2C)c(=O)n4C)cc1COC` [Example 248.5, 8-(5-Methoxymethyl-6-methylamino-pyridin-3-yl)-3-methyl-1-(1,3,5-trimethyl-1H-pyrazol-4-yl)-1,3-dihydro-imidazo[4,5-c]quinolin-2-one], the IC50 was determined as 14 nM on PI3K delta, 32 nM on PI3K alpha, 144 nM on PI3K beta and 565 nM at mTOR.
`Cc1nn(CC(=O)N2CCOCC2)cc1-n1c(=O)n(C)c2cnc3ccc(-c4cnc(N5CCCC5)nc4)cc3c21` [Example 247.3, 3-Methyl-1-[3-methyl-1-(2-morpholin-4-yl-2-oxo-ethyl)-1H-pyrazol-4-yl]-8-(2-pyrrolidin-1-yl-pyrimidin-5-yl)-1,3-dihydro-imidazo[4,5-c]quinolin-2-one]: the IC50 in test [1] is 35 nM; in test [2], 175 nM; on PI3K alpha it was 163 nM; in test [3] it was 636 nM; at mTOR, 28 nM; in test [4] it was 240 nM.

Values taken from patent publication US20140005163A1 (NOVARTIS AG, priority 2010, published 2014).
